The experiment concerns P388 leukemia ip, CD2F1 mice, survival T/C. Put plainly: NCI In Vivo Anticancer Drug Screen. Data for tumor model P388 Leukemia (intraperitoneal) in CD2F1 (CDF1) mice. Particulars: endpoint: median survival time, higher = longer survival. The method, boiled down:
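Mice carrying the transplanted tumor received test compound or vehicle. Survival was recorded in each group, and the value is the treated-group measurement divided by that of the vehicle-treated control group.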

Where [1] appears, read: dose: 100.0 mg/kg/injection, schedule: Q01DX009 (ip), vehicle: saline with Tween-80.
The mark [2] stands for this setting: dose: 100.0 mg/kg/injection, schedule: Q01DX001 (ip), vehicle: saline.
[3] abbreviates: dose: 200.0 mg/kg/injection, schedule: Q01DX001 (ip), vehicle: saline.
The mark [4] stands for this setting: dose: 400.0 mg/kg/injection, schedule: Q01DX001 (ip), vehicle: saline.

The values below come from PubChem BioAssay AID330 (DTP/NCI, 2004).

Several values for one entry are separate records, joined by “and”; a condition that tells them apart may be missing. Equal values may be shown once. Inconclusive results and toxic doses are left out.

Turning to `CC1C=CCC(C)(C)C1` (stereo not drawn), the T/C reads like this: (dose: 100.0 mg/kg/injection, schedule: Q01DX009 (ip), vehicle: Klucel (hydroxypropylcellulose) (HPC)) 101 % of control; (dose: 100.0 mg/kg/injection, schedule: Q04DX003 (ip), vehicle: saline) 88 % of control; (dose: 200.0 mg/kg/injection, schedule: Q01DX009 (ip), vehicle: Klucel (hydroxypropylcellulose) (HPC)) 106 % of control; (dose: 200.0 mg/kg/injection, schedule: Q04DX003 (ip), vehicle: saline) 96 % of control; (dose: 400.0 mg/kg/injection, schedule: Q04DX003 (ip), vehicle: saline) 92 % of control.
As for `CCC[N+](CCC)=c1ccc2nc3c(C)cc(N(CC)CC)cc3sc-2c1`, the T/C was 108 % of control (dose: 0.78 mg/kg/injection, schedule: Q01DX009 (ip), vehicle: saline); 112 % of control (dose: 1.56 mg/kg/injection, schedule: Q01DX009 (ip), vehicle: saline); 113 % of control and 118 % of control (dose: 3.13 mg/kg/injection, schedule: Q01DX009 (ip), vehicle: saline); 123 % of control (dose: 6.25 mg/kg/injection, schedule: Q01DX009 (ip), vehicle: saline); 115 % of control (dose: 12.5 mg/kg/injection, schedule: Q01DX009 (ip), vehicle: saline).
`Cc1ccc(C(=O)OC2C3(C)CCC(C3)C2(C)C)cc1` (stereo not drawn): the T/C is 100 % of control (dose: 60.0 mg/kg/injection, schedule: Q01DX005 (ip), vehicle: saline with Tween-80); 100 % of control (dose: 120.0 mg/kg/injection, schedule: Q01DX005 (ip), vehicle: saline with Tween-80); 94 % of control (dose: 240.0 mg/kg/injection, schedule: Q01DX005 (ip), vehicle: saline with Tween-80).
Take `O=C1NC2(CCCCC2)C(=O)N1CCCN(CCCl)CCCl`: the T/C (dose: 1.5 mg/kg/injection, schedule: Q01DX005 (ip), vehicle: saline) is 121 % of control; the T/C (dose: 6.0 mg/kg/injection, schedule: Q01DX005 (ip), vehicle: saline) was 153 % of control and 156 % of control; the T/C (dose: 12.0 mg/kg/injection, schedule: Q01DX005 (ip), vehicle: saline) is 178 % of control and 200 % of control and 208 % of control; the T/C (dose: 24.0 mg/kg/injection, schedule: Q01DX005 (ip), vehicle: saline) is 162 % of control and 210 % of control.
For the compound `C=C(c1ccc(OC)cc1)c1ccc(OC)cc1`, the T/C runs as follows: (dose: 50.0 mg/kg/injection, schedule: Q01DX009 (ip), vehicle: saline with Tween-80) 103 % of control; under setting [1], 105 % of control; (dose: 200.0 mg/kg/injection, schedule: Q01DX009 (ip), vehicle: saline with Tween-80) 102 % of control.
As to `O=C(NC1(OC(=O)c2ccc(Cl)cc2)CC1)c1ccc(Cl)cc1`, the T/C reads like this: (dose: 60.0 mg/kg/injection, schedule: Q01DX005 (ip), vehicle: Klucel (hydroxypropylcellulose) (HPC)) 103 % of control; (dose: 120.0 mg/kg/injection, schedule: Q01DX005 (ip), vehicle: Klucel (hydroxypropylcellulose) (HPC)) 104 % of control; (dose: 240.0 mg/kg/injection, schedule: Q01DX005 (ip), vehicle: Klucel (hydroxypropylcellulose) (HPC)) 89 % of control.
For the compound `O=C(O)C1CC(c2ccccc2)=NN1c1ccccc1` (stereo not drawn), the T/C is, setting by setting: (dose: 12.5 mg/kg/injection, schedule: Q01DX009 (ip), vehicle: water) 99 % of control; (dose: 25.0 mg/kg/injection, schedule: Q01DX009 (ip), vehicle: water) 98 % of control; (dose: 50.0 mg/kg/injection, schedule: Q01DX009 (ip), vehicle: water) 103 % of control; (dose: 88.0 mg/kg/injection, schedule: Q01DX009 (ip), vehicle: water) 112 % of control and 120 % of control; (dose: 100.0 mg/kg/injection, schedule: Q01DX009 (ip), vehicle: water) 109 % of control; (dose: 133.0 mg/kg/injection, schedule: Q01DX009 (ip), vehicle: water) 119 % of control and 124 % of control. The T/C by setting is: (dose: 200.0 mg/kg/injection, schedule: Q01DX009 (ip), vehicle: water) 123 % of control; (dose: 300.0 mg/kg/injection, schedule: Q01DX009 (ip), vehicle: water) 122 % of control.
`O=C(Nc1ccccc1)/C(Cl)=C(/Cl)C(=O)C(Cl)(Cl)Cl`: the T/C runs as follows: (dose: 12.5 mg/kg/injection, schedule: Q01DX009 (ip), vehicle: distilled water + Tween-80) 103 % of control; (dose: 25.0 mg/kg/injection, schedule: Q01DX009 (ip), vehicle: distilled water + Tween-80) 103 % of control.
Turning to `Cc1ccccc1N=C(N)Nc1ccccc1C`, the T/C (dose: 2.5 mg/kg/injection, schedule: Q01DX009 (ip), vehicle: saline with Tween-80) is 95 % of control; the T/C (dose: 5.0 mg/kg/injection, schedule: Q01DX009 (ip), vehicle: saline with Tween-80) is 100 % of control; the T/C (dose: 10.0 mg/kg/injection, schedule: Q01DX009 (ip), vehicle: saline with Tween-80) was 100 % of control.
Turning to `NC(Cc1cnc[nH]1)C(=O)O` (stereo not drawn), the T/C was 110 % of control (dose: 50.0 mg/kg/injection, schedule: Q01DX009 (ip), vehicle: saline); 107 % of control (dose: 100.0 mg/kg/injection, schedule: Q01DX009 (ip), vehicle: saline); 110 % of control (dose: 200.0 mg/kg/injection, schedule: Q01DX009 (ip), vehicle: saline).
With `CS/C(=C/c1ccc2ccccc2[n+]1C)N1CCCC1`, the T/C reads like this: (dose: 0.1 mg/kg/injection, schedule: Q01DX005 (ip), vehicle: saline) 103 % of control; (dose: 0.2 mg/kg/injection, schedule: Q01DX005 (ip), vehicle: saline) 99 % of control; (dose: 0.4 mg/kg/injection, schedule: Q01DX005 (ip), vehicle: saline) 100 % of control; (dose: 0.78 mg/kg/injection, schedule: Q01DX005 (ip), vehicle: saline) 116 % of control; (dose: 1.56 mg/kg/injection, schedule: Q01DX005 (ip), vehicle: saline) 111 % of control.
As for `COc1cc(/C=C/C(=O)c2ccccc2O)cc(OC)c1OC`, the T/C (dose: 50.0 mg/kg/injection, schedule: Q01DX005 (ip), vehicle: saline with Tween-80) was 97 % of control; the T/C (dose: 100.0 mg/kg/injection, schedule: Q01DX005 (ip), vehicle: saline with Tween-80) was 110 % of control; the T/C (dose: 200.0 mg/kg/injection, schedule: Q01DX005 (ip), vehicle: saline with Tween-80) was 97 % of control.
Take `Cc1ccc(S(=O)(=O)NC2CC3(C)CCC2C3(C)C)cc1` (stereo not drawn): the T/C runs as follows: (dose: 50.0 mg/kg/injection, schedule: Q01DX005 (ip), vehicle: Klucel (hydroxypropylcellulose) (HPC)) 94 % of control; (dose: 100.0 mg/kg/injection, schedule: Q01DX005 (ip), vehicle: Klucel (hydroxypropylcellulose) (HPC)) 97 % of control; (dose: 200.0 mg/kg/injection, schedule: Q01DX005 (ip), vehicle: Klucel (hydroxypropylcellulose) (HPC)) 87 % of control.
For the compound `O=C(NO)C1(Br)CCCCC1Br` (stereo not drawn), the T/C (dose: 100.0 mg/kg/injection, schedule: Q01DX001 (ip), vehicle: Klucel (hydroxypropylcellulose) (HPC)) was 91 % of control.
For the compound `CCO/C=C1\SC(=S)N(c2ccccc2C)C1=O`, the T/C (dose: 2.5 mg/kg/injection, schedule: Q03HX024 (ip), vehicle: saline with Tween-80) was 105 % of control; the T/C (dose: 5.0 mg/kg/injection, schedule: Q03HX024 (ip), vehicle: saline with Tween-80) is 107 % of control; the T/C (dose: 10.0 mg/kg/injection, schedule: Q03HX024 (ip), vehicle: saline with Tween-80) was 117 % of control; the T/C (dose: 14.6 mg/kg/injection, schedule: Q01DX009 (ip), vehicle: saline with Tween-80) was 105 % of control; the T/C (dose: 22.0 mg/kg/injection, schedule: Q01DX009 (ip), vehicle: saline with Tween-80) is 105 % of control; the T/C under setting [1] is 160 % of control. Also, the T/C reads like this: (dose: 100.0 mg/kg/injection, schedule: Q04DX003 (ip), vehicle: saline with Tween-80) 116 % of control; (dose: 200.0 mg/kg/injection, schedule: Q04DX003 (ip), vehicle: saline with Tween-80) 120 % of control.
Regarding `CCn1c(=NC(=O)c2ccccc2O)sc2ccccc21`, the T/C is, setting by setting: under setting [2], 98 % of control and 95 % of control; under setting [3], 103 % of control and 95 % of control; under setting [4], 100 % of control and 103 % of control.
Consider `OCC1OC2OCCOC2OC1CO` (stereo not drawn), for which the T/C by setting is: under setting [2], 102 % of control; under setting [3], 96 % of control; under setting [4], 102 % of control.
As to `CC1=C(c2ccccc2)CS1(=O)=O`, the T/C was 101 % of control (dose: 100.0 mg/kg/injection, schedule: Q04DX002 (ip), vehicle: saline with Tween-80); 99 % of control (dose: 200.0 mg/kg/injection, schedule: Q04DX002 (ip), vehicle: saline with Tween-80); 110 % of control (dose: 400.0 mg/kg/injection, schedule: Q04DX002 (ip), vehicle: saline with Tween-80).
